Results from US10681909B2, “Herbicidal triazoles” (FMC Corporation, priority 2014, dated 2020).

Columns and labels:
corn = assay: Test A postemergence; type: in vivo, Zea mays; conditions: Zea mays, post-emergence, 240 h, 0 to 100 scale (0 no effect, 100 complete control), approx. 10 d
How it was run: (§1)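 Test chemicals in a non-phytotoxic solvent with surfactant were applied as a directed soil spray preemergence to seeds sown in loam/sand. Postemergence sprays went to plants 2–10 cm tall at the one- to two-leaf stage. A dash means no result.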

foxtail, giant [1] = assay: Test A preemergence; type: in vivo, Setaria faberii; conditions: Setaria faberi, pre-emergence, 240 h, 0 to 100 scale (0 no effect, 100 complete control), read-out: Plant response rating, Foxtail, Giant
How it was run: as §1

lambsquarters = assay: Test C postemergence; type: in vivo, Chenopodium album
How it was run: (§2)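 Test chemicals in a non-phytotoxic solvent mixture with surfactant were applied to pots of plants at 2 to 18 cm (1- to 4-leaf stage) for postemergence treatment, grown in a peat-based medium with vermiculite, starter nutrients and dolomitic limestone. Preemergence treatment was to seeds freshly planted in loam soil mixed with sand.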

barnyardgrass [2] = assay: Test A postemergence; type: in vivo, Echinochloa crus-galli; conditions: Echinochloa crus-galli, post-emergence, 240 h, 0 to 100 scale (0 no effect, 100 complete control), approx. 10 d, read-out: Plant response rating, Barnyardgrass
How it was run: as §1

velvetleaf = assay: Test C postemergence; type: in vivo, Abutilon theophrasti
How it was run: as §2

johnsongrass = assay: Test C postemergence; type: in vivo, Sorghum halepense
How it was run: as §2

chickweed = assay: Test C postemergence; type: in vivo, Stellaria media
How it was run: as §2

nutsedge, yellow = assay: Test C postemergence; type: in vivo, Cyperus esculentus
How it was run: as §2

barnyardgrass [3] = assay: Test B flooded paddy test; type: in vivo, Echinochloa crus-galli; conditions: Echinochloa crus-galli, 360 h, 125 g ai/ha, applied to paddy water at 2-leaf stage, visual rating after 13 to 15 d, scale 0 (no effect) to 100 (complete control), read-out: Plant response rating, Barnyardgrass, Flood
How it was run: (§3)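 Pots were flooded to 3 cm above the soil at treatment, and compounds were applied directly into the paddy water. That depth was held throughout. After 13 to 15 d in a greenhouse, plants were rated visually against untreated controls.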

oilseed rape = assay: Test C postemergence; type: in vivo, Brassica napus; conditions: Oilseed Rape
How it was run: as §2

oat, wild = assay: Test C postemergence; type: in vivo, Avena fatua
How it was run: as §2

wheat (winter wheat) = assay: Test C postemergence; type: in vivo, Triticum aestivum
How it was run: as §2

morningglory = assay: Test C postemergence; type: in vivo, Ipomoea coccinea
How it was run: as §2

pigweed [4] = assay: Test C postemergence; type: in vivo, Amaranthus retroflexus
How it was run: as §2

crabgrass, large = assay: Test C postemergence; type: in vivo, Digitaria sanguinalis
How it was run: as §2

pigweed [5] = assay: Test A postemergence; type: in vivo, Amaranthus retroflexus; conditions: Amaranthus retroflexus, post-emergence, 240 h, 0 to 100 scale (0 no effect, 100 complete control), approx. 10 d, read-out: Plant response rating, Pigweed
How it was run: as §1

rice = assay: Test B flooded paddy test; type: in vivo, Oryza sativa; conditions: Oryza sativa, 360 h, 125 g ai/ha, applied to paddy water at 2-leaf stage, visual rating after 13 to 15 d, scale 0 (no effect) to 100 (complete control), read-out: Plant response rating, Rice, Flood
How it was run: as §3

foxtail, giant [6] = assay: Test C postemergence; type: in vivo, Setaria faberii
How it was run: as §2

ragweed = assay: Test C postemergence; type: in vivo, Ambrosia elatior
How it was run: as §2

kochia = assay: Test C postemergence; type: in vivo, Kochia scoparia
How it was run: as §2

COc1nc(-c2ccc(F)cc2)nn1Cc1ccnc(C(F)(F)F)c1 [Compound 9, 4-[[3-(4-fluorophenyl)-5-methoxy-1H-1,2,4-triazol-1-yl]methyl]-2-(trifluoromethyl)pyridine]
Corn plant response rating (crop injury, 0 = no effect, 100 = complete kill) at 125 g/ha (corn; 125 g ai/ha): 40% | Corn plant response rating (crop injury, 0 = no effect, 100 = complete kill) at 500 g/ha (corn; 500 g ai/ha): 80% | pest or weed control at 125 g/ha (foxtail, giant [1]; 125 g ai/ha): 100% | pest or weed control at 500 g/ha (foxtail, giant [1]; 500 g ai/ha, approx. 10 d): 100% | Plant response rating (scale of 0 to 100 where 0 is no effect and 100 is complete control) (lambsquarters; 16 g ai/ha): 65 | Plant response rating (scale of 0 to 100 where 0 is no effect and 100 is complete control) (lambsquarters; 31 g ai/ha): 55 | Plant response rating (scale of 0 to 100 where 0 is no effect and 100 is complete control) (lambsquarters; 62 g ai/ha): 70 | Plant response rating (scale of 0 to 100 where 0 is no effect and 100 is complete control) (lambsquarters; 125 g ai/ha): 85 | pest or weed control at 125 g/ha (barnyardgrass [2]; 125 g ai/ha): 70% | pest or weed control at 500 g/ha (barnyardgrass [2]; 500 g ai/ha): 90% | Plant response rating (scale of 0 to 100 where 0 is no effect and 100 is complete control) (velvetleaf; 16 g ai/ha): 25 | Plant response rating (scale of 0 to 100 where 0 is no effect and 100 is complete control) (velvetleaf; 31 g ai/ha): 35 | Plant response rating (scale of 0 to 100 where 0 is no effect and 100 is complete control) (velvetleaf; 62 g ai/ha): 35 | Plant response rating (scale of 0 to 100 where 0 is no effect and 100 is complete control) (velvetleaf; 125 g ai/ha): 35 | Plant response rating (scale of 0 to 100 where 0 is no effect and 100 is complete control) (johnsongrass; 16 g ai/ha): 0 | Plant response rating (scale of 0 to 100 where 0 is no effect and 100 is complete control) (johnsongrass; 31 g ai/ha): 5 | Plant response rating (scale of 0 to 100 where 0 is no effect and 100 is complete control) (johnsongrass; 62 g ai/ha): 5 | Plant response rating (scale of 0 to 100 where 0 is no effect and 100 is complete control) (johnsongrass; 125 g ai/ha): 10 | Plant response rating (scale of 0 to 100 where 0 is no effect and 100 is complete control) (chickweed; 16 g ai/ha): 70 | Plant response rating (scale of 0 to 100 where 0 is no effect and 100 is complete control) (chickweed; 31 g ai/ha): 75 | Plant response rating (scale of 0 to 100 where 0 is no effect and 100 is complete control) (chickweed; 62 g ai/ha): 75 | Plant response rating (scale of 0 to 100 where 0 is no effect and 100 is complete control) (chickweed; 125 g ai/ha): 80 | Plant response rating (scale of 0 to 100 where 0 is no effect and 100 is complete control) (nutsedge, yellow; 16 g ai/ha): 0 | Plant response rating (scale of 0 to 100 where 0 is no effect and 100 is complete control) (nutsedge, yellow; 31 g ai/ha): 0 | Plant response rating (scale of 0 to 100 where 0 is no effect and 100 is complete control) (nutsedge, yellow; 62 g ai/ha): 0 | Plant response rating (scale of 0 to 100 where 0 is no effect and 100 is complete control) (nutsedge, yellow; 125 g ai/ha): 5 | pest or weed control at 125 g/ha (barnyardgrass [3]): 0% | Plant response rating (scale of 0 to 100 where 0 is no effect and 100 is complete control) (oilseed rape; 16 g ai/ha): 40 | Plant response rating (scale of 0 to 100 where 0 is no effect and 100 is complete control) (oilseed rape; 31 g ai/ha): 55 | Plant response rating (scale of 0 to 100 where 0 is no effect and 100 is complete control) (oilseed rape; 62 g ai/ha): 80 | Plant response rating (scale of 0 to 100 where 0 is no effect and 100 is complete control) (oilseed rape; 125 g ai/ha): 70 | Plant response rating (scale of 0 to 100 where 0 is no effect and 100 is complete control) (oat, wild; 16 g ai/ha): 5 | Plant response rating (scale of 0 to 100 where 0 is no effect and 100 is complete control) (oat, wild; 31 g ai/ha): 5 | Plant response rating (scale of 0 to 100 where 0 is no effect and 100 is complete control) (oat, wild; 62 g ai/ha): 5 | Plant response rating (scale of 0 to 100 where 0 is no effect and 100 is complete control) (oat, wild; 125 g ai/ha): 10 | Plant response rating (scale of 0 to 100 where 0 is no effect and 100 is complete control) (wheat (winter wheat); 16 g ai/ha): 0 | Plant response rating (scale of 0 to 100 where 0 is no effect and 100 is complete control) (wheat (winter wheat); 31 g ai/ha): 0 | Plant response rating (scale of 0 to 100 where 0 is no effect and 100 is complete control) (wheat (winter wheat); 62 g ai/ha): 0 | Plant response rating (scale of 0 to 100 where 0 is no effect and 100 is complete control) (wheat (winter wheat); 125 g ai/ha): 5 | Plant response rating (scale of 0 to 100 where 0 is no effect and 100 is complete control) (morningglory; 16 g ai/ha): 70 | Plant response rating (scale of 0 to 100 where 0 is no effect and 100 is complete control) (morningglory; 31 g ai/ha): 85 | Plant response rating (scale of 0 to 100 where 0 is no effect and 100 is complete control) (morningglory; 62 g ai/ha): 80 | Plant response rating (scale of 0 to 100 where 0 is no effect and 100 is complete control) (morningglory; 125 g ai/ha): 75 | Plant response rating (scale of 0 to 100 where 0 is no effect and 100 is complete control) (pigweed [4]; 16 g ai/ha): 75 | Plant response rating (scale of 0 to 100 where 0 is no effect and 100 is complete control) (pigweed [4]; 31 g ai/ha): 85 | Plant response rating (scale of 0 to 100 where 0 is no effect and 100 is complete control) (pigweed [4]; 62 g ai/ha): 90 | Plant response rating (scale of 0 to 100 where 0 is no effect and 100 is complete control) (pigweed [4]; 125 g ai/ha): 85 | Plant response rating (scale of 0 to 100 where 0 is no effect and 100 is complete control) (crabgrass, large; 16 g ai/ha): 10 | Plant response rating (scale of 0 to 100 where 0 is no effect and 100 is complete control) (crabgrass, large; 31 g ai/ha): 10 | Plant response rating (scale of 0 to 100 where 0 is no effect and 100 is complete control) (crabgrass, large; 62 g ai/ha): 25 | Plant response rating (scale of 0 to 100 where 0 is no effect and 100 is complete control) (crabgrass, large; 125 g ai/ha): 25 | pest or weed control at 125 g/ha (pigweed [5]; 125 g ai/ha): 100% | pest or weed control at 500 g/ha (pigweed [5]; 500 g ai/ha): 100% | plant injury at 125 g/ha (rice): 0% | Plant response rating (scale of 0 to 100 where 0 is no effect and 100 is complete control) (foxtail, giant [6]; 16 g ai/ha): 10 | Plant response rating (scale of 0 to 100 where 0 is no effect and 100 is complete control) (foxtail, giant [6]; 31 g ai/ha): 15 | Plant response rating (scale of 0 to 100 where 0 is no effect and 100 is complete control) (foxtail, giant [6]; 62 g ai/ha): 15 | Plant response rating (scale of 0 to 100 where 0 is no effect and 100 is complete control) (foxtail, giant [6]; 125 g ai/ha): 20 | Plant response rating (scale of 0 to 100 where 0 is no effect and 100 is complete control) (ragweed; 16 g ai/ha): 15 | Plant response rating (scale of 0 to 100 where 0 is no effect and 100 is complete control) (ragweed; 31 g ai/ha): 25 | Plant response rating (scale of 0 to 100 where 0 is no effect and 100 is complete control) (ragweed; 62 g ai/ha): 25 | Plant response rating (scale of 0 to 100 where 0 is no effect and 100 is complete control) (ragweed; 125 g ai/ha): 50 | Plant response rating (scale of 0 to 100 where 0 is no effect and 100 is complete control) (kochia; 16 g ai/ha): 95 | Plant response rating (scale of 0 to 100 where 0 is no effect and 100 is complete control) (kochia; 31 g ai/ha): 90 | Plant response rating (scale of 0 to 100 where 0 is no effect and 100 is complete control) (kochia; 62 g ai/ha): 90 | Plant response rating (scale of 0 to 100 where 0 is no effect and 100 is complete control) (kochia; 125 g ai/ha): 90
